Where a name gives a salt, the structure may show the parent alone.
Experiments:
[1] = biological target: T1, PAR1 thrombin receptor (Homo sapiens, UniProt P25116); test: Receptor binding assay ([3H] high affinity TRAP, platelet membrane); conditions: displacement of 25 nM [3H] high affinity TRAP from platelet membrane, 37° C., 1 hour; read-out: RBA IC50
T1 construct: centrifuged at 40,000 g for 60 minutes to yield platelet membrane; from tissue; host or cells: platelet membrane from donor blood
T1 sequence (P25116 22-425): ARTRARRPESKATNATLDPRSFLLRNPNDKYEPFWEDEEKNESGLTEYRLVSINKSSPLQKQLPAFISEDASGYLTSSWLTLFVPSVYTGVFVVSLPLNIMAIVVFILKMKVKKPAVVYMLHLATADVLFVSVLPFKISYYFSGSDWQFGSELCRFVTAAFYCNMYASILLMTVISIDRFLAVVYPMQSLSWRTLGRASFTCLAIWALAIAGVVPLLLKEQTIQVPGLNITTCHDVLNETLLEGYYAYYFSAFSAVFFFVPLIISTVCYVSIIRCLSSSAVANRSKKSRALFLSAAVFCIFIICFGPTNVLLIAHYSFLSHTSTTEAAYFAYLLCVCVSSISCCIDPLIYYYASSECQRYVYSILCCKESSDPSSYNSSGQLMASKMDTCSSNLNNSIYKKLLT
Protocol: Blood was sampled from a healthy adult who had taken no drugs for one week, and 3.8% citric acid (a ratio of 1:9 with respect to the blood) was added as an anticoagulant. The mixture was then centrifuged at 100 g for 10 minutes at room temperature to yield platelet rich plasma (PRP). The platelet precipitate obtained, by centrifuging the PRP was homogenized with a Dounce homogenizer, and then centrifuged at 40,000 g for 60 minutes to yield platelet membrane. The platelet membrane was suspended in a solution prepared by adding DMSO (dimethyl sulfoxide) at 1% concentration to Buffer 1: a 50 mM Tris-HCl buffer containing 10 mM MgCl2 and 1 mM EGTA (ethylene glycol tetraacetic acid), and the suspension was stored at −80° C. Bovine albumin and DMSO were added to Buffer 1 at 0.1% and 20%, respectively, to make a preparation solution for the test compound. […] Next, 30 μl of liquid scintillator was added for measurement of the radioactivity of the plate using a Top Counter (Packard), the value of the radioactivity in the presence of the test compound minus non-specific binding portion was divided by the specific binding value (the value of the binding in the absence of the compound minus the non-specific binding portion) to determine the binding ratio, from which the IC50 value was calculated. […]

[2] = tested on: Vascular smooth muscle cells (rSMC); test: Rat smooth muscle cell proliferation assay (thrombin-stimulated, MTT); format: cell-based; conditions: 48 h, thrombin 0.1 unit/ml, 2 days, MTT OD 590 nm, read-out: Rat SMC IC50
Protocol: Vascular smooth muscle cells (rSMC) were isolated from male SD rat aorta by the explant method. DMEM medium (Sigma) containing 10% fetal bovine serum (GibcoBRL), streptomycin and penicillin was used as the proliferation medium, and subculture was carried out at 37° C. in the presence of 5% CO2. Culture was initiated after adding 100 μl of rSMC suspension in proliferation medium at a concentration of 1×10^4 cells/ml, to a 96-well plate. After 3 days, cells were rinsed twice with 100 μl of DMEM medium, the medium was exchanged with 100 μl of DMEM medium containing 0.1% albumin (starvation medium), and serum starvation was initiated. […]
Upon adding 20 μl of MTT (3-[4,5-dimethylthiazol-2-yl]-2,5-diphenyltetrazolium bromide) dissolved in DPBS to 7.5 mg/ml, incubation was continued for 4 hours. […] As an index of cell proliferation, the OD 590 nm was measured using a plate reader (EL340, BIO-TEK Instruments Inc.), and the control OD value (OD value in the absence of the test compound) minus the OD value in the presence of the test compound was divided by the control OD value minus the blank OD value (OD value without thrombin stimulation) to determine the inhibition ratio, from which the value was calculated.

[3] = tested on: platelet rich plasma (PRP), thrombin-induced platelet aggregation; test: Inhibitory effects on platelet aggregation using platelet rich plasma (thrombin-induced); format: cell-based; conditions: Homo sapiens, 0.1 h, thrombin 0.5-1.5 units/ml, area under aggregation curve over 6 minutes, read-out: Thr IC50
Protocol: Blood was sampled from a healthy adult who had taken no drugs for one week, and 3.8% citric acid (a ratio of 1:9 with respect to the blood) was added as an anticoagulant. The mixture was then centrifuged at 100 g for 10 minutes at room temperature to yield platelet rich plasma (PRP). The PRP-removed blood was further centrifuged at 1000 g for 10 minutes to yield platelet poor plasma (PPP). The number of platelet was counted using a multi-parameter automatic hemocyte counter (K4500, Sysmex), and the PRP was diluted to approximately 300,000/μl with the PPP. The platelet aggregation activity was determined in the following manner using an Aggregometer (MC Medical). GPRP-NH2 (final concentration 1 mM, 25 μl) was added as a fibrin polymerization inhibitor to the PRP (175 μl), after which Ca-free Tyrode solution (control) or the test compound suspension (25 μl) at different concentrations was added, incubation was performed at 37° C. for 3 minutes and then 25 μl of thrombin at the minimum concentration required to produce maximum aggregation (final concentration: optimum concentration among 0.5-1.5 units/ml) was added, for initiation of platelet aggregation. […] After addition of thrombin, the aggregation reaction was examined for 6 minutes and the areas under the aggregation curves were compared to determine the inhibition ratio, from which the IC50 value was calculated.

CCCC1CN(CC(=O)c2cc(N(C)S(C)(=O)=O)c(O)c(C(C)(C)C)c2)C(=N)[C@@H]1c1ccccc1 (stereo in doubt) [Example 3, N-{3-tert-Butyl-2-hydroxy-5-[2-((3S,4S)-2-imino-3-phenyl-4-propyl-pyrrolidin-1-yl)-acetyl]-phenyl}-N-methyl-methanesulfonamide hydrobromide]
IC50 [1]: 660 nM | IC50 [2]: 2500 nM | IC50 [3]: 2300 nM

Reference: patent US7476688B2, “Cyclic amidine derivatives” (EISAI R&D Management Co., Ltd., priority 2001, dated 2009)
